In PMC4890880 (ACS infectious diseases, 2016):

tested on: HepG2-A16-CD81EGFP cells; experiment: not given; conditions: human, 50 uM

Row | Structure (SMILES) | HepG2 Tox% @ 50 uM rep1 [%] | HepG2 Tox% @ 50 uM rep2 [%]
1 | CCCCCn1c(=N)n(CC(O)COc2cccc(C)c2)c2ccccc21 (centres unmarked) [MMV000444] | 100 | 
2 | CCOc1cc2c(cc1OCC)C(c1cc(Cl)ccc1O)NCC2 (centres unmarked) [MMV000478] | 101 | 
3 | CCCCC(O)(c1ccc(Cl)cc1)C(CN1CCOCC1)c1ccc(Cl)cc1 (centres unmarked) [MMV000619] | 97 | 
4 | OC(CNCc1ccccc1)Cn1c2ccccc2c2ccccc21 (centres unmarked) [MMV000839] | 99 | 
5 | OCCNc1nc(Nc2ccc(Cl)c(Cl)c2)nc2ccccc12 [MMV001041] | 98 | 
6 | CN(C)CCNc1cc(-c2ccccc2)nc2ccccc12 [MMV006704] | 96 | 
7 | COc1ccc(Nc2cc(C)nc(NCc3ccccc3)n2)cc1 [MMV006825] | 97 | 
8 | CCOC(=O)c1cnc2ccc(Cl)cc2c1NCCCN(C)C [MMV006882] | 99 | 
9 | CCOc1ccc2nc(C)cc(Nc3ccc(N(C)C)cc3)c2c1 [MMV007020] | 97 | 
10 | COc1nc(Nc2ccc(C(C)C)cc2)nc(OC)n1 [MMV007808] | 94 | 95
11 | COc1ccc2nc(C)cc(Nc3cccc(O)c3)c2c1 [MMV008212] | 99 | 
12 | O=C(CCc1ccccc1)c1ccccc1OCC(O)CN1CCCCC1 (centres unmarked) [MMV009015] | 97 | 
13 | O=C1c2ccc3c4c(ccc(c24)C(=O)N1CCCCO)C(=O)N(CCCCO)C3=O [MMV009085] | 102 | 
14 | Oc1ccc2ccccc2c1CNc1nc2ccccc2[nH]1 [MMV011832] | 100 | 
15 | COc1ccc(C(=O)Nc2ccc3nc(N4CCCCC4)cc(C)c3c2)cc1OC [MMV019758] | 101 | 101
16 | CCn1c(CN2CCN(Cc3ccccc3)CC2)nc2cc(NC(=O)c3cccs3)ccc21 [MMV020439] | 98 | 99
17 | CN(C)CCCNCc1ccc(-c2ccc(F)c(Cl)c2)o1 [MMV020505] | 96 | 
18 | CCC(O)c1ccc(Br)cc1NC(=O)c1cccc(Cl)c1 (centres unmarked) [MMV020654] | 101 | 101
19 | COc1cc(-c2nc(-c3ccccc3)c(-c3ccccc3)[nH]2)cc(OC)c1O [MMV020750] | 102 | 
20 | COc1ccc(C=C2SC(Nc3ccc(F)cc3)=NC2=O)c(OC)c1 [MMV084434] | 100 | 
21 | OC(CNCC1CCCO1)Cn1c2ccc(Cl)cc2c2cc(Cl)ccc21 (centres unmarked) [MMV396736] | 98 | 99
22 | CC(C)CNC(=O)c1c(N)n(CCc2ccccc2F)c2nc3ccccc3nc12 [MMV396744] | 99 | 99
23 | CCOC(=O)c1cnc2ccc(OC)cc2c1NCc1ccccc1 [MMV665813] | 102 | 
24 | OC(CNC1CCCCC1)Cn1c2ccc(I)cc2c2cc(I)ccc21 (centres unmarked) [MMV665882] | 100 | 
25 | COc1ccc2nc(N)nc(C)c2c1 [MMV665897] | 97 | 
26 | N=c1n(CCN2CCCCC2)c2ccccc2n1CC(O)c1cccc(Br)c1 (centres unmarked) [MMV665902] | 101 | 102
27 | FC(F)(F)c1cccc(CNC2CCN(CCc3ccccc3)CC2)c1 [MMV665979] | 99 | 99

tested on: Plasmodium berghei (Pb-Luc) exoerythrocytic-stage parasites; experiment: microbe, parasite or virus in culture; conditions: read-out: Inhibition% @ 50 uM rep1

Row | Structure (SMILES) | inhibition at 50 µM [%]
28 | CCCCCn1c(=N)n(CC(O)COc2cccc(C)c2)c2ccccc21 (centres unmarked) [MMV000444] | 102
29 | CCOc1cc2c(cc1OCC)C(c1cc(Cl)ccc1O)NCC2 (centres unmarked) [MMV000478] | 103
30 | CCCCC(O)(c1ccc(Cl)cc1)C(CN1CCOCC1)c1ccc(Cl)cc1 (centres unmarked) [MMV000619] | 99
31 | OC(CNCc1ccccc1)Cn1c2ccccc2c2ccccc21 (centres unmarked) [MMV000839] | 101
32 | OCCNc1nc(Nc2ccc(Cl)c(Cl)c2)nc2ccccc12 [MMV001041] | 99
33 | CN(C)CCNc1cc(-c2ccccc2)nc2ccccc12 [MMV006704] | 95
34 | COc1ccc(Nc2cc(C)nc(NCc3ccccc3)n2)cc1 [MMV006825] | 100
35 | CCOC(=O)c1cnc2ccc(Cl)cc2c1NCCCN(C)C [MMV006882] | 99
36 | CCOc1ccc2nc(C)cc(Nc3ccc(N(C)C)cc3)c2c1 [MMV007020] | 100
37 | COc1nc(Nc2ccc(C(C)C)cc2)nc(OC)n1 [MMV007808] | 101
38 | COc1ccc2nc(C)cc(Nc3cccc(O)c3)c2c1 [MMV008212] | 99
39 | O=C(CCc1ccccc1)c1ccccc1OCC(O)CN1CCCCC1 (centres unmarked) [MMV009015] | 99
40 | O=C1c2ccc3c4c(ccc(c24)C(=O)N1CCCCO)C(=O)N(CCCCO)C3=O [MMV009085] | 103
41 | Oc1ccc2ccccc2c1CNc1nc2ccccc2[nH]1 [MMV011832] | 99
42 | COc1ccc(C(=O)Nc2ccc3nc(N4CCCCC4)cc(C)c3c2)cc1OC [MMV019758] | 104
43 | CCn1c(CN2CCN(Cc3ccccc3)CC2)nc2cc(NC(=O)c3cccs3)ccc21 [MMV020439] | 99
44 | CN(C)CCCNCc1ccc(-c2ccc(F)c(Cl)c2)o1 [MMV020505] | 98
45 | CCC(O)c1ccc(Br)cc1NC(=O)c1cccc(Cl)c1 (centres unmarked) [MMV020654] | 104
46 | COc1cc(-c2nc(-c3ccccc3)c(-c3ccccc3)[nH]2)cc(OC)c1O [MMV020750] | 103
47 | COc1ccc(C=C2SC(Nc3ccc(F)cc3)=NC2=O)c(OC)c1 [MMV084434] | 103
48 | OC(CNCC1CCCO1)Cn1c2ccc(Cl)cc2c2cc(Cl)ccc21 (centres unmarked) [MMV396736] | 101
49 | CC(C)CNC(=O)c1c(N)n(CCc2ccccc2F)c2nc3ccccc3nc12 [MMV396744] | 101
50 | CCOC(=O)c1cnc2ccc(OC)cc2c1NCc1ccccc1 [MMV665813] | 103
51 | OC(CNC1CCCCC1)Cn1c2ccc(I)cc2c2cc(I)ccc21 (centres unmarked) [MMV665882] | 103
52 | COc1ccc2nc(N)nc(C)c2c1 [MMV665897] | 100
53 | N=c1n(CCN2CCCCC2)c2ccccc2n1CC(O)c1cccc(Br)c1 (centres unmarked) [MMV665902] | 104
54 | FC(F)(F)c1cccc(CNC2CCN(CCc3ccccc3)CC2)c1 [MMV665979] | 101

same assay, conditions: read-out: Inhibition% @ 50 uM rep2

Row | Structure (SMILES) | inhibition at 50 µM [%]
55 | CCCCCn1c(=N)n(CC(O)COc2cccc(C)c2)c2ccccc21 (centres unmarked) [MMV000444] | 103
56 | CCOc1cc2c(cc1OCC)C(c1cc(Cl)ccc1O)NCC2 (centres unmarked) [MMV000478] | 104
57 | CCCCC(O)(c1ccc(Cl)cc1)C(CN1CCOCC1)c1ccc(Cl)cc1 (centres unmarked) [MMV000619] | 100
58 | OC(CNCc1ccccc1)Cn1c2ccccc2c2ccccc21 (centres unmarked) [MMV000839] | 100
59 | OCCNc1nc(Nc2ccc(Cl)c(Cl)c2)nc2ccccc12 [MMV001041] | 101
60 | CN(C)CCNc1cc(-c2ccccc2)nc2ccccc12 [MMV006704] | 97
61 | COc1ccc(Nc2cc(C)nc(NCc3ccccc3)n2)cc1 [MMV006825] | 100
62 | CCOC(=O)c1cnc2ccc(Cl)cc2c1NCCCN(C)C [MMV006882] | 102
63 | CCOc1ccc2nc(C)cc(Nc3ccc(N(C)C)cc3)c2c1 [MMV007020] | 101
64 | COc1nc(Nc2ccc(C(C)C)cc2)nc(OC)n1 [MMV007808] | 96
65 | COc1ccc2nc(C)cc(Nc3cccc(O)c3)c2c1 [MMV008212] | 102
66 | O=C(CCc1ccccc1)c1ccccc1OCC(O)CN1CCCCC1 (centres unmarked) [MMV009015] | 100
67 | O=C1c2ccc3c4c(ccc(c24)C(=O)N1CCCCO)C(=O)N(CCCCO)C3=O [MMV009085] | 104
68 | Oc1ccc2ccccc2c1CNc1nc2ccccc2[nH]1 [MMV011832] | 101
69 | COc1ccc(C(=O)Nc2ccc3nc(N4CCCCC4)cc(C)c3c2)cc1OC [MMV019758] | 104
70 | CCn1c(CN2CCN(Cc3ccccc3)CC2)nc2cc(NC(=O)c3cccs3)ccc21 [MMV020439] | 102
71 | CN(C)CCCNCc1ccc(-c2ccc(F)c(Cl)c2)o1 [MMV020505] | 98
72 | CCC(O)c1ccc(Br)cc1NC(=O)c1cccc(Cl)c1 (centres unmarked) [MMV020654] | 106
73 | COc1cc(-c2nc(-c3ccccc3)c(-c3ccccc3)[nH]2)cc(OC)c1O [MMV020750] | 104
74 | COc1ccc(C=C2SC(Nc3ccc(F)cc3)=NC2=O)c(OC)c1 [MMV084434] | 104
75 | OC(CNCC1CCCO1)Cn1c2ccc(Cl)cc2c2cc(Cl)ccc21 (centres unmarked) [MMV396736] | 101
76 | CC(C)CNC(=O)c1c(N)n(CCc2ccccc2F)c2nc3ccccc3nc12 [MMV396744] | 103
77 | CCOC(=O)c1cnc2ccc(OC)cc2c1NCc1ccccc1 [MMV665813] | 104
78 | OC(CNC1CCCCC1)Cn1c2ccc(I)cc2c2cc(I)ccc21 (centres unmarked) [MMV665882] | 104
79 | COc1ccc2nc(N)nc(C)c2c1 [MMV665897] | 101
80 | N=c1n(CCN2CCCCC2)c2ccccc2n1CC(O)c1cccc(Br)c1 (centres unmarked) [MMV665902] | 105
81 | FC(F)(F)c1cccc(CNC2CCN(CCc3ccccc3)CC2)c1 [MMV665979] | 99
